The values that follow come from patent US20240316147A1, “PHARMACEUTICAL COMPOSITION COMPRISING AN APL TYPE PEPTIDE” (CENTRO DE INGENIERIA GENÉTICA Y BIOTECNOLOGIA, priority 2017, published 2024).

Common to all, as to type: physicochemical
Series [1] is described as follows: Solubility of the peptide in buffers and excipients, determined by RP-HPLC. The method, then: Different ionic species, pH and excipients were evaluated, to achieve the total solubility of the peptide, and a high chemical stability. Solubility of peptide was evaluated with different excipients, which included different ionic salts, sugars, polyols, amino acids and detergents.
First stage of the formulation development included the evaluation of buffer species influence and pH on chemical and physical stability of the peptide.

Series [2] is described as follows: Stability of the peptide in 50 mM sodium phosphate buffer pH 7.4 at 37° C. (RP-HPLC, mass spectrometry). On the procedure:
FIG. 1. Chromatographic profile of APL-type peptide identified as Seq ID No. 1 dissolved in 50 mM sodium phosphate buffer, pH 7.4. The profile was obtained by reverse phase chromatography (RP-HPLC), (A) time 0, (B) 15 days of storage at 37° C.
APL type peptide was obtained by chemical synthesis. […] To study the causes of such effect, peptide was dissolved in that buffer and stored at 37° C. for 15 days. Subsequently, several aliquots were analyzed periodically by RP-HPLC. Presence of contaminating species was verified, these were purified and analyzed by mass spectrometry, and several fractions were identified that could correspond to degradations.
In order to accelerate the degradation, peptide was incubated under stress conditions that allow the possible degraded species of the peptide to be obtained fast and in high proportions. Fractions collected after RP-HPLC were characterized by mass spectrometry.

Series [3] can be described thus: Molecular exclusion chromatography-HPLC of the peptide in water, PBS and sucrose. Conditions: dissolved in water (control). From the text:
FIG. 3. Molecular exclusion chromatography—HPLC of the peptide of Seq ID No. 1 dissolved in water (A), in phosphate buffered saline (PBS) (B) and in sucrose (C).
In PBS the peptide eluted in a shorter retention time, compared to the sample dissolved in water and in sucrose solution.

The nature of series [4]: Effect of pH on concentration and purity of the peptide in 50 mM sodium acetate buffer (RP-HPLC). The settings on record: 2.5 mg/mL in 50 mM sodium acetate buffer, pH 3.0, 4.0, 5.0; 4° C. or 37° C., 15 days. The method, then:
FIG. 4. Effect of pH on concentration of peptide identified as Seq ID No. 1, in samples formulated and stored at 4° C. (A) and at 37° C. (B).
FIG. 5. Effect of pH on the purity of the peptide identified as Seq ID No. 1, in samples formulated and stored at 37° C.
Three pH values were analyzed: 3.0; 4.0 and 5.0. Samples were filtered and stored at 4° C. or at 37° C., for 15 days. Evaluation of stability and concentration of peptide was carried out by RP-HPLC. Results of concentration of peptide stored at 4° C. or at 37° C., respectively, are shown in FIGS. 4A and 4B, respectively. […] At 37° C., precipitation process is accelerated.
Chemical integrity of peptide (expressed as % purity in RP-HPLC) was greater than 95%, for the samples formulated in three pH values, when these were stored at 4° C., for 15 days.

Entries after “also recorded” stand apart in the source; their conditions may differ. Where no end group is shown, it is not given here.

For “SIDLKDKYKNIGAKLVQLVANNTNEEA [peptide identified as Seq ID No. 1]”, the solubility of peptide result was “very poorly soluble” in series [1] (in other ionic species: sodium citrate, sodium glutamate and Tris-HCl); “very poorly soluble; also recorded: poorly soluble” in series [1] (in sodium phosphate buffer (50 mM, pH 7.4)); “highest solubility” in series [1] (in solutions of sucrose or trehalose, peptide 1-10 mg/mL); “best solubilized the peptide” in series [1] (sodium acetate buffer (acetic acid and sodium hydroxide), 10-70 mM); “good solubility” in series [3]. Besides, the “degraded species identified by mass spectrometry (fractions 1, 2 and 4)” value in series [2] (50 mM sodium phosphate buffer pH 7.4, 15 days at 37° C.) is “deamidated variants of the peptide”. In addition, in series [2] (50 mM sodium phosphate buffer, pH 7.4), the “stability of peptide in solution” value is recorded as “progressively destabilized”. For the same sequence, the “physical stability of peptide” value in series [4] is reported as “greater at pH 3.0”.
